Tests used:
Details in all cases: incubation time: 72 h
MDA-MB-453 [1] = assay: normalised response (% of control), CellTox Green; higher = less cell death (100 = DMSO, 0 = benzethonium chloride kill control)
In short: (§1)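 Each value is the plate-normalised signal at one concentration of the series. Breast cancer cell lines (20 µl suspension) were incubated 72 h in 384-well plates with compound at 5 concentrations in 10-fold steps over a compound-specific 10,000-fold range. CellTox Green and then CellTiter-Glo were read, and each plate was scaled to 0.1 % DMSO (100) and a positive kill control (0).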

MDA-MB-468 [2] = assay: as above
In short: as §1

Hs578T [3] = assay: as above
In short: as §1

HCC1599 [4] = assay: as above
In short: as §1

MDA-MB-231 [5] = assay: as above
In short: as §1

HCC1937 [6] = assay: as above
In short: as §1

CAL-85-1 [7] = assay: as above
In short: as §1

BT-549 [8] = assay: as above
In short: as §1

MDA-MB-436 [9] = assay: as above
In short: as §1

MCF-10A [10] = assay: as above
In short: as §1

DU-4475 [11] = assay: as above
In short: as §1

CAL-120 [12] = assay: as above
In short: as §1

CAL-148 [13] = assay: as above
In short: as §1

MFM-223 [14] = assay: as above
In short: as §1

BT-474 [15] = assay: as above
In short: as §1

CAL-51 [16] = assay: as above
In short: as §1

HCC1143 [17] = assay: as above
In short: as §1

MDA-MB-453 [18] = assay: normalised response (% of control), CellTiter-Glo; higher = more viable cells (100 = DMSO, 0 = benzethonium chloride kill control)
Description: (§2)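 DSRT, 72 h incubation, CellTox Green / CellTiter-Glo readout. Signal is normalised to DMSO and benzethonium chloride controls. Value is the normalised response at dose 3.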

MDA-MB-468 [19] = assay: as above
Description: as §2

Hs578T [20] = assay: as above
Description: as §2

HCC1599 [21] = assay: as above
Description: as §2

MDA-MB-231 [22] = assay: as above
Description: as §2

HCC1937 [23] = assay: as above
Description: as §2

CAL-85-1 [24] = assay: as above
Description: as §2

BT-549 [25] = assay: as above
Description: as §2

MDA-MB-436 [26] = assay: as above
Description: as §2

MCF-10A [27] = assay: as above
Description: as §2

DU-4475 [28] = assay: as above
Description: as §2

SK-BR-3 = assay: as above
Description: as §2

CAL-120 [29] = assay: as above
Description: as §2

CAL-148 [30] = assay: as above
Description: as §2

MFM-223 [31] = assay: as above
Description: as §2

BT-474 [32] = assay: as above
Description: as §2

CAL-51 [33] = assay: as above
Description: as §2

HDQ-P1 [34] = assay: as above
Description: as §2

HCC1143 [35] = assay: as above
Description: as §2

HDQ-P1 [36] = assay: normalised response (% of control), CellTox Green; higher = less cell death (100 = DMSO, 0 = benzethonium chloride kill control)
In short: as §1

| SMILES | normalised response (MDA-MB-453 [1]) | normalised response (MDA-MB-468 [2]) | normalised response (Hs578T [3]) | normalised response (HCC1599 [4]) | normalised response (MDA-MB-231 [5]) | normalised response (HCC1937 [6]) | normalised response (CAL-85-1 [7]) | normalised response (BT-549 [8]) | normalised response (MDA-MB-436 [9]) | normalised response (MCF-10A [10]) | normalised response (DU-4475 [11]) | normalised response (CAL-120 [12]) | normalised response (CAL-148 [13]) | normalised response (MFM-223 [14]) | normalised response (BT-474 [15]) | normalised response (CAL-51 [16]) | normalised response (HCC1143 [17]) | normalised response (MDA-MB-453 [18]) | normalised response (MDA-MB-468 [19]) | normalised response (Hs578T [20]) | normalised response (HCC1599 [21]) | normalised response (MDA-MB-231 [22]) | normalised response (HCC1937 [23]) | normalised response (CAL-85-1 [24]) | normalised response (BT-549 [25]) | normalised response (MDA-MB-436 [26]) | normalised response (MCF-10A [27]) | normalised response (DU-4475 [28]) | normalised response (SK-BR-3) | normalised response (CAL-120 [29]) | normalised response (CAL-148 [30]) | normalised response (MFM-223 [31]) | normalised response (BT-474 [32]) | normalised response (CAL-51 [33]) | normalised response (HDQ-P1 [34]) | normalised response (HCC1143 [35]) | normalised response (HDQ-P1 [36]) |
| --- | --- | --- | --- | --- | --- | --- | --- | --- | --- | --- | --- | --- | --- | --- | --- | --- | --- | --- | --- | --- | --- | --- | --- | --- | --- | --- | --- | --- | --- | --- | --- | --- | --- | --- | --- | --- | --- |
| Cc1c(Cn2c(C)nc3c(C(=O)O)cc(N4CCOCC4)cc32)cccc1C(F)(F)F (100 nM) | 111% | 134% | 109% | 107% | 124% | 78% | 104% | 111% | 108% | 101% | 109% | 106% | 105% | 107% | 104% | 86.7% | 113% | 91.3% | 89.2% | 101% | 101% | 104% | 94.5% | 96.6% | 86.2% | 102% | 111% | 103% | 107% | 102% | 111% | 108% | 97.2% | 62.5% | 103% | 101% | – |
| CCCCC/C=C/C=C1/C(=O)C=C[C@@H]1C/C=C\CCCC(=O)O [15D-PGJ2] (8 nM) | – | 82% | 113% | 111% | 118% | 101% | 109% | 112% | 103% | 64.6% | 110% | 99.3% | 88.1% | 100% | 102% | 107% | 105% | 100% | 94% | 96.9% | 86.3% | 107% | 99.1% | 100% | 99.3% | 101% | 101% | 101% | 99.4% | 107% | 112% | 98.5% | 98.7% | 97.1% | 103% | 104% | – |
| CC(=O)OC[C@H]1O[C@@H]([S-])[C@H](OC(C)=O)[C@@H](OC(C)=O)[C@@H]1OC(C)=O.CCP(CC)CC.[Au+] [Auranofin] (25 nM) | 109% | 117% | – | 111% | 123% | 113% | 122% | 110% | – | 62.3% | 112% | 110% | 108% | 102% | 105% | 100% | 88.9% | 104% | 103% | 103% | 89.1% | 103% | 93.8% | 99% | 93.1% | 103% | 104% | 98.2% | 101% | 100% | 111% | 97.8% | 96.8% | 92.5% | 101% | 104% | 93.8% |
| O=S(=O)(c1cccc2cnccc12)N1CCCNCC1 [Fasudil] (500 nM) | 99.9% | 78.7% | 104% | 101% | 101% | 83.3% | 95.6% | 91.3% | – | 95% | 100% | 100% | 69.2% | 91.7% | 98.3% | 102% | 75% | 112% | 101% | 104% | 107% | 103% | 100% | 112% | 101% | 103% | 90.7% | 106% | 101% | 97.9% | 105% | 108% | 98.3% | 85.6% | 105% | 101% | 102% |

— the supplement of paper PMC4862054
